IC50 data for 2 molecules are collected here from ChEMBL document CHEMBL6109050, “Synthesis of novel pyrrolobenzodiazepine (PBD) C1-substituted monomers and dimers with DNA-binding activity and cytotoxicity” (Bioorg Med Chem Lett, 2025).

This experiment concerns MDA-MB-231. In words: Cytotoxicity against human MDA-MB-231 cells incubated for 72 hrs by MTT assay. It is filed as functional, cell-based. The conditions noted are these: MDA-MB-231, 72 h. On the technique in general: Tetrazolium dyes change colour on reduction, which living cells bring about.

`COc1cc2c(cc1OC)C(=O)N1CC[C@H](OCCCO[C@H]3CCN4C(=O)c5cc(OC)c(OC)cc5N=C[C@H]34)[C@H]1C=N2` registered an IC50 of 236 nM.

`COC(=O)c1cc(-c2ccc(NC(=O)c3nc(NC(=O)CO[C@H]4CCN5C(=O)c6cc(OC)c(OC)cc6N=C[C@H]45)cn3C)cc2)cn1C` came in with a half-maximal inhibitory concentration (IC50) of 36 nM.

By IC50 is commonly meant the concentration at which inhibition is half-maximal. Lower therefore signals greater potency in that assay.
